Measurements as given in the NIST ThermoML archive (doi:10.1021/acs.jced.9b00794).
Numbers after ± are expanded uncertainties.

Details: 100 kPa, Liquid, Vibrating tube method

NC=O [formamide]
mass density (288.15 K): 1137.91 ± 0.11 kg/m3
mass density (298.15 K): 1129.49 ± 0.11 kg/m3
mass density (308.15 K): 1121.04 ± 0.11 kg/m3
mass density (318.15 K): 1112.55 ± 0.1 kg/m3
mass density (328.15 K): 1104.04 ± 0.1 kg/m3

O [water]
mass density (328.15 K): 985.69 ± 0.05 kg/m3
